# ChEMBL document CHEMBL1153432 (J Med Chem, 2009)
# Where a SMILES comes first, the peptide text is derived from it. [ ]: non-standard residue; d: D form. The star is where a group is joined. Heptanoyl = CCCCCCC(=O)*; Dap = NC[C@H](N)C(=O)O; X1 = O=C(CCCCCF)*
# Columns and labels:
# [1] = biological target: T1, Growth hormone secretagogue receptor type 1 (Homo sapiens, UniProt Q92847); assay: Displacement of [35S]MK-0677 from human growth hormone secretagogue receptor
# [2] = biological target: T1, Growth hormone secretagogue receptor type 1; assay: Displacement of [125I]ghrelin from human growth hormone secretagogue receptor expressed in CHO-K1 cells; type: cell-based
# [3] = biological target: T1, Growth hormone secretagogue receptor type 1; assay: Displacement of [125I]ghrelin from human growth hormone secretagogue receptor expressed in CHO-K1 cells at >2 uM; type: cell-based
# T1 sequence (Q92847 whole entry): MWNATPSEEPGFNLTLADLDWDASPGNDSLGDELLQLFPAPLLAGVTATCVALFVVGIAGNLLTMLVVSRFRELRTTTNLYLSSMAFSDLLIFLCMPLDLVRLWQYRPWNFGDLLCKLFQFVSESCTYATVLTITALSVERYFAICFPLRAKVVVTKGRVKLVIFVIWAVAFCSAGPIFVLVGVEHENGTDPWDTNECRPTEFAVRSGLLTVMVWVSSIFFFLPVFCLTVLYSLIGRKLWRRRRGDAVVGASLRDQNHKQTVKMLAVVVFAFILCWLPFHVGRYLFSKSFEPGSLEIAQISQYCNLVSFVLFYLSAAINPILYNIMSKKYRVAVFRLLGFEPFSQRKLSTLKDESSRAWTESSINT
compound,measurement,setting,value
CCCCCCC(=O)OC[C@H](NC(=O)[C@H](CO)NC(=O)CN)C(=O)N[C@@H](Cc1ccccc1)C(=O)N[C@@H](CC(C)C)C(=O)N[C@@H](CO)C(=O)N1CCC[C@H]1C(=O)N[C@@H](CCC(=O)O)C(=O)N[C@@H](Cc1cnc[nH]1)C(=O)N[C@@H](CCC(N)=O)C(=O)N[C@@H](CCCN=C(N)N)C(=O)N[C@H](C(=O)N[C@@H](CCC(N)=O)C(=O)N[C@@H](CCC(N)=O)C(=O)O)C(C)C,IC50,[1],9.6 µM
CCCCCCC(=O)OC[C@H](NC(=O)[C@H](CO)NC(=O)CN)C(=O)N[C@@H](Cc1ccccc1)C(N)=O (H-GSS(Heptanoyl)F-NH2),IC50,[1],889 µM
CCCCCCC(=O)OC[C@H](NC(=O)[C@H](CO)NC(=O)CN)C(=O)N[C@@H](Cc1ccccc1)C(=O)N[C@@H](CC(C)C)C(N)=O (H-GSS(Heptanoyl)FL-NH2),IC50,[1],55 µM
CC(C)C[C@H](NC(=O)[C@H](Cc1ccccc1)NC(=O)[C@H](CNC(=O)CCCCCF)NC(=O)[C@H](CO)NC(=O)CN)C(N)=O (H-GS[Dap](X1)FL-NH2),IC50,[2],> 2 µM
same,Activity,[3],20%
